In patent US9340590B2 (priority 2011, dated 2016):
Like-named read-outs stand apart in the source and are kept apart here. Positions of bridges follow the written chain, without caps; N, C: chain ends. Non-standard residues stand in square brackets, D forms with d. Residues, ends and D or L forms follow the SMILES beside them. Phe(4-I) = N[C@@H](Cc1ccc(I)cc1)C(=O)O

How the values were obtained:
Assay in all cases: cell-based
hNav1.3 = hNav1.3 (Homo sapiens, UniProt Q9NY46); details: IonWorks Quattro, read-out: IWQ Use Nav1.3
Sequence of hNav1.3 (Q9NY46 whole entry, looked up): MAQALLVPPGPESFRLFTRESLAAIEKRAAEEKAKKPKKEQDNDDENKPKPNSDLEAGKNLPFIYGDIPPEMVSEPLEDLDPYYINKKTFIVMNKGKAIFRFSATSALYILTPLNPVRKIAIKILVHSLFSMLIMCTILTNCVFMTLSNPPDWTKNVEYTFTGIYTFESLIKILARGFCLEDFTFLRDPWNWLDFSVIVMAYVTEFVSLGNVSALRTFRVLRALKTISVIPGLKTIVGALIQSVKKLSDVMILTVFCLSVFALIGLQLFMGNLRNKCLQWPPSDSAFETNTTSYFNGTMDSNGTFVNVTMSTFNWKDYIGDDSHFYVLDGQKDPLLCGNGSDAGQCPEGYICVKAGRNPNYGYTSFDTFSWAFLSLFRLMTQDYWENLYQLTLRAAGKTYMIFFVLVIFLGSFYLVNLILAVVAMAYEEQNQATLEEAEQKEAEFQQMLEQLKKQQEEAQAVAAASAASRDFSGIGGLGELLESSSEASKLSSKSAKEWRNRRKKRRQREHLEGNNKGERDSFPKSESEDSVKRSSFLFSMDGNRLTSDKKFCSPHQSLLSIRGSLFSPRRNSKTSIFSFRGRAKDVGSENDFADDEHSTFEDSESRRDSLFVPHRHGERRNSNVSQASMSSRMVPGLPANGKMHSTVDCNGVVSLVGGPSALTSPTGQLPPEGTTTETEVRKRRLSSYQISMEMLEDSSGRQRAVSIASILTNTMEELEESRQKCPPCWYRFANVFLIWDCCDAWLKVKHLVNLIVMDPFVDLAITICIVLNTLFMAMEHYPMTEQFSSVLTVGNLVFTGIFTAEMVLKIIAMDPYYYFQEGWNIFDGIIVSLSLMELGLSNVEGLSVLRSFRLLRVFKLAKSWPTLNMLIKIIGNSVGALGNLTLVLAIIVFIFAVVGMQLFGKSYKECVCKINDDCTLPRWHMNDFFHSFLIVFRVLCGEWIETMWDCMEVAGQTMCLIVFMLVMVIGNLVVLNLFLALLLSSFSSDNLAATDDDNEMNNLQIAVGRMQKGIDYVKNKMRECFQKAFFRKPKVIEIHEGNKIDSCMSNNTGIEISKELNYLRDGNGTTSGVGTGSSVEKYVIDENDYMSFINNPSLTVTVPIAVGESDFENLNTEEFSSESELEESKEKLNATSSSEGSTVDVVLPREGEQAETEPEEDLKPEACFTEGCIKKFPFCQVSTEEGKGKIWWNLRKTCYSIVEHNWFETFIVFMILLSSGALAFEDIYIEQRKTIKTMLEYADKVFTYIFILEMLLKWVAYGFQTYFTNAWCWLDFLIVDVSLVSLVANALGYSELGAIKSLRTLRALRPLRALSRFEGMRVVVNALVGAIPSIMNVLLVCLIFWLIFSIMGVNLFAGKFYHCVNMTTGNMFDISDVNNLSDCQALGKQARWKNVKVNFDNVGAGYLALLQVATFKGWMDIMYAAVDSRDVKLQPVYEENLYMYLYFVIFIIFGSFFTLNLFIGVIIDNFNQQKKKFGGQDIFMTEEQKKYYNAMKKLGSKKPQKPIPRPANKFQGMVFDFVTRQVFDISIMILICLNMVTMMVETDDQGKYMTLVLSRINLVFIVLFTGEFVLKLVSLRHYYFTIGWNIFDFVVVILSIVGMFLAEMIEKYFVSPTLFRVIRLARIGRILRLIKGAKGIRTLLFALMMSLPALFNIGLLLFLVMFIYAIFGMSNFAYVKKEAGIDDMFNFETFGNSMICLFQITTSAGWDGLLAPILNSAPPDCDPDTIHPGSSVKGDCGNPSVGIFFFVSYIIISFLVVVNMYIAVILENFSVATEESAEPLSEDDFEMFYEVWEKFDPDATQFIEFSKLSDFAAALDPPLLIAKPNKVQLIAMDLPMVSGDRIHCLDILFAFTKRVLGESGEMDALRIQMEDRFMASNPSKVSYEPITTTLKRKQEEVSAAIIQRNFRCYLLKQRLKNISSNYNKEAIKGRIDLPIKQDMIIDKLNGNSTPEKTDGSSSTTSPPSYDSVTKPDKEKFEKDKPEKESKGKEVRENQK

hNav1.7 = hNav1.7 (Homo sapiens, UniProt Q15858); type: cell-based; details: IonWorks Quattro, read-out: IWQ Use Nav1.7
hNav1.5 = hNav1.5 (Homo sapiens, UniProt Q14524); details: IonWorks Quattro, read-out: IWQ Use Nav1.5
Sequence of hNav1.5 (Q14524 whole entry, looked up): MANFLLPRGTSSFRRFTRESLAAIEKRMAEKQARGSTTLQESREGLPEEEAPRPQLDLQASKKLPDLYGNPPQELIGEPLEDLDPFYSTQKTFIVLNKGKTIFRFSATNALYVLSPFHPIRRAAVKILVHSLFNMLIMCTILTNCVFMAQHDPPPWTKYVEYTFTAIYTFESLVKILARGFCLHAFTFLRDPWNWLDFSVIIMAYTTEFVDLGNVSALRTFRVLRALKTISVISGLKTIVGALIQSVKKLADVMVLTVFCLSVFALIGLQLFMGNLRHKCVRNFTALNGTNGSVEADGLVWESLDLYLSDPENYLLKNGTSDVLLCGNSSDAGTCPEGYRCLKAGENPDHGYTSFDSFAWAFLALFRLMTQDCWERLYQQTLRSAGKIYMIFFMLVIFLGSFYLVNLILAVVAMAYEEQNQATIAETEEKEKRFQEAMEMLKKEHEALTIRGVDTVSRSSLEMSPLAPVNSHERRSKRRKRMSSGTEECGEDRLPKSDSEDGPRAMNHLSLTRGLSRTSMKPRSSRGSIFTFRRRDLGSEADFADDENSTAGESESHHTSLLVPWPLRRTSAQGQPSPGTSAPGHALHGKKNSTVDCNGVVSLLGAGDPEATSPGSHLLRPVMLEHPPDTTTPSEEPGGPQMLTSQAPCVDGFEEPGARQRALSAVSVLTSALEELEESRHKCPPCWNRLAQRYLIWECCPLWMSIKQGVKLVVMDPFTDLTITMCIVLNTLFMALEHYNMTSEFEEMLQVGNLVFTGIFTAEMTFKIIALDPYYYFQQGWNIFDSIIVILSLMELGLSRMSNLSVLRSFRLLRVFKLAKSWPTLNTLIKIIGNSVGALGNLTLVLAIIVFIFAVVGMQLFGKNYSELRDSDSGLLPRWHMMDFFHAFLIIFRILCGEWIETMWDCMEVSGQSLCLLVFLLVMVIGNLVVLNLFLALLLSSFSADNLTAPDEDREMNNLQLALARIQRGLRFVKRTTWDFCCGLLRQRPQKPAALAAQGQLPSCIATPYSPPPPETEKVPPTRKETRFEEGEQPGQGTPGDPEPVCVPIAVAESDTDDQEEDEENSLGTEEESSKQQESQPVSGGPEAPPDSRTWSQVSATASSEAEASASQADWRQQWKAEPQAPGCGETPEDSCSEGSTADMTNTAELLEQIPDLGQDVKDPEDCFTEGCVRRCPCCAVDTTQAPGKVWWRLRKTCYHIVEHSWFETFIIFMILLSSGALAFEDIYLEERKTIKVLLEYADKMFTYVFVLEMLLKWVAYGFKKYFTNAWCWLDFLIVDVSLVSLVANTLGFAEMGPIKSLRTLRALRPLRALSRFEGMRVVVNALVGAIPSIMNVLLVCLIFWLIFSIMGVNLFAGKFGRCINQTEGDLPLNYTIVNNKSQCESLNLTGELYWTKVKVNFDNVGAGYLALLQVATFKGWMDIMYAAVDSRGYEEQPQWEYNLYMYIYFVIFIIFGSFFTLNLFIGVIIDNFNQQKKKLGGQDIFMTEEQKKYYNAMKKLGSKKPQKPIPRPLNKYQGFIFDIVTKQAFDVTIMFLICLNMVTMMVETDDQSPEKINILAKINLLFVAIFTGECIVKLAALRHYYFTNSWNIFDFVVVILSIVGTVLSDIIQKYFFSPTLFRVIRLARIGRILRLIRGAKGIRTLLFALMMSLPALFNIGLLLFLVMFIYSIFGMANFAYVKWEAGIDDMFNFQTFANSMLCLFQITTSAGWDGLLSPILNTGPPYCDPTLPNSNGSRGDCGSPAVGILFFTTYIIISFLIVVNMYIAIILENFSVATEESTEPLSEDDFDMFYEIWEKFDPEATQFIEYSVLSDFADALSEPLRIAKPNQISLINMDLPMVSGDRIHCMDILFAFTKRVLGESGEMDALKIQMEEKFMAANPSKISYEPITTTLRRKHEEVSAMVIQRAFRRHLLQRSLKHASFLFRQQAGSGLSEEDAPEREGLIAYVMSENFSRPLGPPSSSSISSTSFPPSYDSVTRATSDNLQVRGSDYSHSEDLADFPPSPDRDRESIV

[1] = clamped to −110 mV, depolarized to −10 mV, 5 min after compound, n=2

CSCC[C@@H]1NC(=O)[C@H]([C@@H](C)O)NC(=O)CNC(=O)[C@H](CC(C)C)NC(=O)[C@@H](NC(=O)[C@@H](N)CC(=O)O)CSSC[C@@H]2NC(=O)[C@@H]3CSSC[C@@H](C(=O)N[C@@H](CCCCN)C(=O)N[C@@H](Cc4ccc(O)cc4)C(=O)N[C@H](C(=O)N[C@@H](Cc4ccccc4)C(N)=O)C(C)C)NC(=O)[C@H](Cc4c[nH]c5ccccc45)NC(=O)[C@H](CCCCN)NC(=O)[C@H](Cc4c[nH]cn4)NC(=O)[C@H]([C@@H](C)O)NC(=O)[C@H](CCCNC(=N)N)NC(=O)[C@H](CO)NC(=O)[C@H](CSSC[C@H](NC(=O)[C@H](CCCCN)NC(=O)[C@H](CCCNC(=N)N)NC1=O)C(=O)N[C@@H](CC(=O)O)C(=O)N1CCC[C@H]1C(=O)N[C@@H](CC(=O)O)C(=O)N[C@@H](CC(N)=O)C(=O)N[C@@H](CC(=O)O)C(=O)N[C@@H](CCCCN)C(=O)N3)NC(=O)[C@H](C(C)C)NC(=O)[C@H](CC(C)C)NC(=O)[C@H](CC(N)=O)NC(=O)[C@@H]1CCCN1C(=O)[C@H](CCCNC(=N)N)NC2=O [compound 714] (H-DCLGTMRKCDPDNDKCCRPNLVCSRTHKWCKYVF-NH2; disulfide 2-17, 9-23, 16-30)
IC50 (hNav1.3; use-dependent protocol, hNav1.3): > 5 µM | IC50 (hNav1.7; use-dependent protocol, hNav1.7): 1.6 µM | IC50 (hNav1.5; use-dependent protocol, hNav1.5): 48 µM

CC[C@H](C)[C@@H]1NC(=O)[C@@H]2CSSC[C@@H]3NC(=O)[C@H](C(C)C)NC(=O)[C@H](CC(C)C)NC(=O)[C@H](CC(N)=O)NC(=O)[C@@H]4CCCN4C(=O)[C@H](CCCNC(=N)N)NC(=O)[C@H](CSSC[C@H](NC(=O)[C@@H](N)CC(=O)O)C(=O)N[C@@H](CC(C)C)C(=O)NCC(=O)N[C@@H](Cc4ccccc4)C(=O)N[C@@H](CCSC)C(=O)N[C@@H](CCCNC(=N)N)C(=O)N[C@@H](CCCCN)C(=O)N2)NC(=O)[C@H](CSSC[C@@H](C(=O)N[C@@H](CCCCN)C(=O)N[C@@H](Cc2ccc(O)cc2)C(=O)N[C@@H](Cc2c[nH]c4ccccc24)C(=O)N[C@@H](Cc2ccccc2)C(N)=O)NC(=O)[C@H](Cc2c[nH]c4ccccc24)NC(=O)[C@H](CCCCN)NC(=O)[C@H](Cc2c[nH]cn2)NC(=O)[C@H](CC(C)C)NC(=O)[C@H](CCCNC(=N)N)NC(=O)[C@H](CO)NC3=O)NC(=O)[C@H](CCCCN)NC(=O)[C@H](CC(=O)O)NC(=O)[C@H](CC(N)=O)NC(=O)[C@H](CC(=O)O)NC(=O)[C@@H]2CCCN2C1=O [compound 447] (H-DCLGFMRKCIPDNDKCCRPNLVCSRLHKWCKYWF-NH2; disulfide 2-17, 9-23, 16-30)
IC50 (hNav1.3; use-dependent block, hNav1.3): 0.02 µM | IC50 (hNav1.7; use-dependent block, hNav1.7): 0.03 µM | IC50 (hNav1.5; use-dependent block, hNav1.5): > 5 µM

CC[C@H](C)[C@@H]1NC(=O)[C@@H]2CSSC[C@@H]3NC(=O)[C@H](C(C)C)NC(=O)[C@H](CC(C)C)NC(=O)[C@H](CC(N)=O)NC(=O)[C@@H]4CCCN4C(=O)[C@H](CCCNC(=N)N)NC(=O)[C@H](CSSC[C@H](NC(=O)[C@@H](N)CC(=O)O)C(=O)N[C@@H](CC(C)C)C(=O)NCC(=O)N[C@@H](Cc4ccccc4)C(=O)N[C@@H](CCSC)C(=O)N[C@@H](CCCNC(=N)N)C(=O)N[C@@H](CCCCN)C(=O)N2)NC(=O)[C@H](CSSC[C@@H](C(=O)N[C@@H](CCCCN)C(=O)N[C@@H](Cc2ccc(I)cc2)C(=O)N[C@H](C(=O)N[C@@H](Cc2ccccc2)C(N)=O)C(C)C)NC(=O)[C@H](Cc2c[nH]c4ccccc24)NC(=O)[C@H](CCCCN)NC(=O)[C@H](Cc2c[nH]cn2)NC(=O)[C@H]([C@@H](C)O)NC(=O)[C@H](CCCNC(=N)N)NC(=O)[C@H](CO)NC3=O)NC(=O)[C@H](CCCCN)NC(=O)[C@H](CC(=O)O)NC(=O)[C@H](CC(N)=O)NC(=O)[C@H](CC(=O)O)NC(=O)[C@@H]2CCCN2C1=O [compound 381] (H-DCLGFMRKCIPDNDKCCRPNLVCSRTHKWCK[Phe(4-I)]VF-NH2; disulfide 2-17, 9-23, 16-30)
IC50 (hNav1.3; Table 25, use, […]): 0.01 µM | IC50 (hNav1.7; Table 25, use, […]): 0.03 µM | IC50 (hNav1.5; Table 25, use, […]): 4.44 µM

CC[C@H](C)[C@@H]1NC(=O)[C@@H]2CSSC[C@@H]3NC(=O)[C@H](C(C)C)NC(=O)[C@H](CC(C)C)NC(=O)[C@H](CC(N)=O)NC(=O)[C@@H]4CCCN4C(=O)[C@H](CCCNC(=N)N)NC(=O)[C@H](CSSC[C@H](NC(=O)[C@@H](N)CC(=O)O)C(=O)N[C@@H](CC(C)C)C(=O)NCC(=O)N[C@@H](C)C(=O)N[C@@H](Cc4ccccc4)C(=O)N[C@@H](CCCNC(=N)N)C(=O)N[C@@H](CCCCN)C(=O)N2)NC(=O)[C@H](CSSC[C@@H](C(=O)N[C@@H](CCCCN)C(=O)N[C@@H](Cc2ccc(O)cc2)C(=O)N[C@H](C(=O)N[C@@H](Cc2ccccc2)C(=O)O)C(C)C)NC(=O)[C@H](Cc2c[nH]c4ccccc24)NC(=O)[C@H](C)NC(=O)[C@H](Cc2c[nH]cn2)NC(=O)[C@H]([C@@H](C)O)NC(=O)[C@H](CCCNC(=N)N)NC(=O)[C@H](CO)NC3=O)NC(=O)[C@H](CCCCN)NC(=O)[C@H](CC(=O)O)NC(=O)[C@H](CC(N)=O)NC(=O)[C@H](CC(=O)O)NC(=O)[C@@H]2CCCN2C1=O [compound 824] (H-DCLGAFRKCIPDNDKCCRPNLVCSRTHAWCKYVF-OH; disulfide 2-17, 9-23, 16-30)
IC50 (hNav1.3; use-dependent block, hNav1.3): > 5 µM | IC50 (hNav1.7; use-dependent block, hNav1.7): > 5 µM | IC50 (hNav1.5; use-dependent block, hNav1.5): > 5 µM

CC[C@H](C)[C@@H]1NC(=O)[C@@H]2CSSC[C@@H]3NC(=O)[C@H](C(C)C)NC(=O)[C@H](CC(C)C)NC(=O)[C@H](CC(N)=O)NC(=O)[C@@H]4CCCN4C(=O)[C@H](CCCNC(=N)N)NC(=O)[C@H](CSSC[C@H](NC(=O)[C@@H](N)CC(=O)O)C(=O)N[C@@H](CC(C)C)C(=O)NCC(=O)N[C@@H](Cc4ccccc4)C(=O)N[C@@H](CCSC)C(=O)N[C@@H](CCCNC(=N)N)C(=O)N[C@@H](CCCCN)C(=O)N2)NC(=O)[C@H](CSSC[C@@H](C(=O)N[C@@H](CCCCN)C(=O)NCC(=O)N[C@H](C(=O)N[C@@H](Cc2ccccc2)C(N)=O)C(C)C)NC(=O)[C@H](Cc2c[nH]c4ccccc24)NC(=O)[C@H](CCCCN)NC(=O)[C@H](Cc2c[nH]cn2)NC(=O)[C@H]([C@@H](C)O)NC(=O)[C@H](CCCNC(=N)N)NC(=O)[C@H](CO)NC3=O)NC(=O)[C@H](CCCCN)NC(=O)[C@H](CC(=O)O)NC(=O)[C@H](CC(N)=O)NC(=O)[C@H](CC(=O)O)NC(=O)[C@@H]2CCCN2C1=O [compound 378] (H-DCLGFMRKCIPDNDKCCRPNLVCSRTHKWCKGVF-NH2; disulfide 2-17, 9-23, 16-30)
IC50 (hNav1.3; Table 25, use, […]): 0.62 µM | IC50 (hNav1.7; Table 25, use, […]): 0.71 µM | IC50 (hNav1.5; Table 25, use, […]): 11.2 µM

CC[C@H](C)[C@@H]1NC(=O)[C@@H]2CSSC[C@@H]3NC(=O)[C@H](C(C)C)NC(=O)[C@H](CC(C)C)NC(=O)[C@H](CC(N)=O)NC(=O)[C@@H]4CCCN4C(=O)[C@H](CCCNC(=N)N)NC(=O)[C@H](CSSC[C@H](NC(=O)[C@@H](N)CC(=O)O)C(=O)N[C@@H](CC(C)C)C(=O)NCC(=O)N[C@@H](Cc4ccccc4)C(=O)N[C@@H](CCSC)C(=O)N[C@@H](CCCNC(=N)N)C(=O)N[C@@H](CCCCN)C(=O)N2)NC(=O)[C@H](CSSC[C@@H](C(=O)N[C@@H](CCCCN)C(=O)N[C@@H](CC(N)=O)C(=O)N[C@H](C(=O)N[C@@H](Cc2ccccc2)C(N)=O)C(C)C)NC(=O)[C@H](Cc2c[nH]c4ccccc24)NC(=O)[C@H](CCCCN)NC(=O)[C@H](Cc2c[nH]cn2)NC(=O)[C@H]([C@@H](C)O)NC(=O)[C@H](CCCNC(=N)N)NC(=O)[C@H](CO)NC3=O)NC(=O)[C@H](CCCCN)NC(=O)[C@H](CC(=O)O)NC(=O)[C@H](CC(N)=O)NC(=O)[C@H](CC(=O)O)NC(=O)[C@@H]2CCCN2C1=O [compound 379] (H-DCLGFMRKCIPDNDKCCRPNLVCSRTHKWCKNVF-NH2; disulfide 2-17, 9-23, 16-30)
IC50 (hNav1.3; Table 25, use, […]): 6.85 µM | IC50 (hNav1.7; Table 25, use, […]): 4.86 µM | IC50 (hNav1.5; Table 25, use, […]): 10.6 µM

CC[C@H](C)[C@@H]1NC(=O)[C@@H]2CSSC[C@@H]3NC(=O)[C@H](C(C)C)NC(=O)[C@H](CC(C)C)NC(=O)[C@H](CC(N)=O)NC(=O)[C@@H]4CCCN4C(=O)[C@H](CCCNC(=N)N)NC(=O)[C@H](CSSC[C@H](NC(=O)[C@@H](N)CC(=O)O)C(=O)N[C@@H](CC(C)C)C(=O)NCC(=O)N[C@@H](Cc4ccccc4)C(=O)N[C@@H](CCC(N)=O)C(=O)N[C@@H](CCCNC(=N)N)C(=O)N[C@@H](CCCCN)C(=O)N2)NC(=O)[C@H](CSSC[C@@H](C(=O)N[C@@H](CCCCN)C(=O)N[C@@H](Cc2ccc(O)cc2)C(=O)N[C@H](C(=O)N[C@@H](Cc2ccccc2)C(N)=O)C(C)C)NC(=O)[C@H](Cc2c[nH]c4ccccc24)NC(=O)[C@H](CCCCN)NC(=O)[C@H](Cc2c[nH]cn2)NC(=O)[C@H]([C@@H](C)O)NC(=O)[C@H](CCCNC(=N)N)NC(=O)[C@H](CO)NC3=O)NC(=O)[C@H](CCCCN)NC(=O)[C@H](CC(=O)O)NC(=O)[C@H](CC(N)=O)NC(=O)[C@H](CC(=O)O)NC(=O)[C@@H]2CCCN2C1=O [SEQ ID NO: 279] (H-DCLGFQRKCIPDNDKCCRPNLVCSRTHKWCKYVF-NH2; disulfide 2-17, 9-23, 16-30)
IC50 (hNav1.3; [1]): 5.96 µM | IC50 (hNav1.7; [1]): 8.62 µM | IC50 (hNav1.5; [1]): 7.57 µM
